Laboratory results published in US20140142155A1, “METHOD OF TREATING THROMBOCYTOPENIA” (GlaxoSmithKline LLC, priority 2008, published 2014).
Entries after “also recorded” stand apart in the source; their conditions may differ.

What was measured:
[1] = tested on: mice; assay: 2-year oral carcinogenicity study in mice; conditions: 2-year study, lowest dose (25 mg/kg/day)
[2] = tested on: pregnant rats (F0); assay: Pre- and post-natal developmental toxicity study; type: in vivo, rat
[3] = tested on: mice; conditions: mouse, in vivo
[4] = tested on: rats; conditions: rat, in vivo
[5] = target: T1, UGT1A3 (Homo sapiens, UniProt P35503); assay: In vitro UGT inhibition; type: in vitro ADME
T1 sequence (P35503 29-534): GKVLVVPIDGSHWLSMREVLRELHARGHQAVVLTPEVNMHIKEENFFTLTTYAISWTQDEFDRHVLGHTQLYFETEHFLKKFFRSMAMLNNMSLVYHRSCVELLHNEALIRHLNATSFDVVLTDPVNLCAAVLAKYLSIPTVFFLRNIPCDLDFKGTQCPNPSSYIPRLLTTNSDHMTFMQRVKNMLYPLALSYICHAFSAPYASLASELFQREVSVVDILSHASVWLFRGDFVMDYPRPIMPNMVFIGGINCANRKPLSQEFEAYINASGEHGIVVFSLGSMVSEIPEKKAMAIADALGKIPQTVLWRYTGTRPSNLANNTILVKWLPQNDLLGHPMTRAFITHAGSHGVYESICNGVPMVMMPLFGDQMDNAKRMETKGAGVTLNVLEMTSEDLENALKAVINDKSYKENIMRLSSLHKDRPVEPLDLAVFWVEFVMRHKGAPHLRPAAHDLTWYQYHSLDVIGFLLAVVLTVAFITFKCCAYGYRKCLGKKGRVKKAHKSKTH
Text: (§1) Monitor patients closely for signs or symptoms of excessive exposure to these drugs when concomitantly administered with Promacta®.

[6] = target: UGT2B7 (Homo sapiens, UniProt P16662); assay: In vitro UGT inhibition; type: in vitro ADME
UGT2B7, sequence (P16662 24-529): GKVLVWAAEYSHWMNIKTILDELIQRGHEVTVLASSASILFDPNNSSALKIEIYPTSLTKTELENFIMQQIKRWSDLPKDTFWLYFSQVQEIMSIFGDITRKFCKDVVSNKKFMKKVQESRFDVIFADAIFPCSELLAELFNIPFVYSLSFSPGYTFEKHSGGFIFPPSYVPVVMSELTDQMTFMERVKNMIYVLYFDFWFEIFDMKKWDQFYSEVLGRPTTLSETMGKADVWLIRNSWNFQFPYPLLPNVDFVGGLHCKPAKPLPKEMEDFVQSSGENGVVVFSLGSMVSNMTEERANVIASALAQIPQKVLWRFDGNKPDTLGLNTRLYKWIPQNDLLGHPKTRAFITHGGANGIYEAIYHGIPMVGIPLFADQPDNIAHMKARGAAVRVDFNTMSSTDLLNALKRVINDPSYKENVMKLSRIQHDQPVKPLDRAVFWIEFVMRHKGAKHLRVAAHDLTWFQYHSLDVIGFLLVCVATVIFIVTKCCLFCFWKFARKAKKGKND
Text: as §1

[7] = target: T2, UGT1A1 (Homo sapiens, UniProt P22309); assay: In vitro UGT inhibition; type: in vitro ADME
T2 sequence (P22309 26-533): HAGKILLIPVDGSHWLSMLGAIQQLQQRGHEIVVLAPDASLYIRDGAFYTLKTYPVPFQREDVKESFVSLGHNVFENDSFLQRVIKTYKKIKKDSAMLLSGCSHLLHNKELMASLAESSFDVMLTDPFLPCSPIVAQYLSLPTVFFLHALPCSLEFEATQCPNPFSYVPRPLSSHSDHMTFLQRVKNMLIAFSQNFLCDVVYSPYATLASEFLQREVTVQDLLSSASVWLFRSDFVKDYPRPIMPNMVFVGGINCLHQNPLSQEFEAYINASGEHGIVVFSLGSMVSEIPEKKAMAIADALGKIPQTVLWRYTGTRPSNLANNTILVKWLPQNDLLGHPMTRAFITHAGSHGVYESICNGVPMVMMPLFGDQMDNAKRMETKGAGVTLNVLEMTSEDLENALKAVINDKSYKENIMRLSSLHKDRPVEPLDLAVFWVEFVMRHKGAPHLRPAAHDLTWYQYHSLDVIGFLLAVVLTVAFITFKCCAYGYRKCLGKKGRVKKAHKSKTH
Text: as §1

[8] = target: UGT1A6 (Homo sapiens, UniProt P19224); assay: In vitro UGT inhibition; type: in vitro ADME
UGT1A6, sequence (P19224 27-532): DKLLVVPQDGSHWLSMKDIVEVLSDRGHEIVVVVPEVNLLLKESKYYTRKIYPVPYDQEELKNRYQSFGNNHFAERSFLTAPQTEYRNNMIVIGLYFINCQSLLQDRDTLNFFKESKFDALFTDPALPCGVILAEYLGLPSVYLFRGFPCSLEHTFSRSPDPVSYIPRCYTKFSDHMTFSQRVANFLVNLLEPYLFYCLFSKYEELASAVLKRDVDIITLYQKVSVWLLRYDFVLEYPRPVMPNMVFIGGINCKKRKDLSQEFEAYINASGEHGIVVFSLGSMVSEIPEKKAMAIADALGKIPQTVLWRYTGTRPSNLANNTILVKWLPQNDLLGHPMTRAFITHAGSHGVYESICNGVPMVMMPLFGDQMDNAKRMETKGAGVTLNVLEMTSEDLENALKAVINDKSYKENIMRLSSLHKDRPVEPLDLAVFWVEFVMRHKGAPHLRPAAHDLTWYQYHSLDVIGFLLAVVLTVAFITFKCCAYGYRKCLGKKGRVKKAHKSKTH
Text: as §1

[9] = target: UGT1A9 (Homo sapiens, UniProt O60656); assay: In vitro UGT inhibition; type: in vitro ADME
UGT1A9, sequence (O60656 26-530): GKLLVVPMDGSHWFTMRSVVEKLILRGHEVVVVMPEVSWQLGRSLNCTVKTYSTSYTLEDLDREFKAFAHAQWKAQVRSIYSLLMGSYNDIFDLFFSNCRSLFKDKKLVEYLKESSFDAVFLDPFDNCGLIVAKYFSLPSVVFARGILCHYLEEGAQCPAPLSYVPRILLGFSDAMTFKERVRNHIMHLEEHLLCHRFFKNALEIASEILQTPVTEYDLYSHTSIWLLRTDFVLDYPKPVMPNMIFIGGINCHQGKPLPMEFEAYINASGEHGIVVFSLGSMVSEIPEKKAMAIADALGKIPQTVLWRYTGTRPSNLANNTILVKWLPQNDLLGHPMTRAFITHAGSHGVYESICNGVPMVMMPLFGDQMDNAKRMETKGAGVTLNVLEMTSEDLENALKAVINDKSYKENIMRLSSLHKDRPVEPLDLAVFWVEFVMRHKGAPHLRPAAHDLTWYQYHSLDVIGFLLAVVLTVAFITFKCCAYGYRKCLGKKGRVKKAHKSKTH
Text: as §1

[10] = target: UGT2B15 (Homo sapiens, UniProt P54855); assay: In vitro UGT inhibition; type: in vitro ADME
UGT2B15, sequence (P54855 24-530): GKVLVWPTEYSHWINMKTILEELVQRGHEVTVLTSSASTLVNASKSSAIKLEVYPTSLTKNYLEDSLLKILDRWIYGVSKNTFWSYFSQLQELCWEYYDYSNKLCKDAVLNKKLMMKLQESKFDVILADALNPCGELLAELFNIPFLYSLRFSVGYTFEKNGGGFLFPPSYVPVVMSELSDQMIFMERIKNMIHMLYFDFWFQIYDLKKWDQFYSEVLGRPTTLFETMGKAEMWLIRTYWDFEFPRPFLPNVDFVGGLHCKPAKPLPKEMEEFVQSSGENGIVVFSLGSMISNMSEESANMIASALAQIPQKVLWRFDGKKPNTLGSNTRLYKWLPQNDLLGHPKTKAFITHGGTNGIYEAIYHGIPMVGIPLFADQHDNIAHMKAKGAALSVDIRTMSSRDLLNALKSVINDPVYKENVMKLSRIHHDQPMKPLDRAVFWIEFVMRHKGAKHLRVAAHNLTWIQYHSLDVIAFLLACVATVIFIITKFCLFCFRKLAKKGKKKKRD
Text: as §1

[11] = target: UGT1A4 (Homo sapiens, UniProt P22310); assay: In vitro UGT inhibition; type: in vitro ADME
Text: as §1

[12] = tested on: mouse lymphoma; assay: In vitro mouse lymphoma assay; type: cell-based
[13] = tested on: pregnant rabbits; conditions: oral 30, 80, or 150 mg/kg/day (0.1, 0.3, 0.6 times human clinical exposure, AUC)
[14] = target: OATP1B1 (Homo sapiens, UniProt Q9Y6L6); assay: In vitro OATP1B1 inhibition; type: in vitro ADME
OATP1B1, sequence (Q9Y6L6 whole entry): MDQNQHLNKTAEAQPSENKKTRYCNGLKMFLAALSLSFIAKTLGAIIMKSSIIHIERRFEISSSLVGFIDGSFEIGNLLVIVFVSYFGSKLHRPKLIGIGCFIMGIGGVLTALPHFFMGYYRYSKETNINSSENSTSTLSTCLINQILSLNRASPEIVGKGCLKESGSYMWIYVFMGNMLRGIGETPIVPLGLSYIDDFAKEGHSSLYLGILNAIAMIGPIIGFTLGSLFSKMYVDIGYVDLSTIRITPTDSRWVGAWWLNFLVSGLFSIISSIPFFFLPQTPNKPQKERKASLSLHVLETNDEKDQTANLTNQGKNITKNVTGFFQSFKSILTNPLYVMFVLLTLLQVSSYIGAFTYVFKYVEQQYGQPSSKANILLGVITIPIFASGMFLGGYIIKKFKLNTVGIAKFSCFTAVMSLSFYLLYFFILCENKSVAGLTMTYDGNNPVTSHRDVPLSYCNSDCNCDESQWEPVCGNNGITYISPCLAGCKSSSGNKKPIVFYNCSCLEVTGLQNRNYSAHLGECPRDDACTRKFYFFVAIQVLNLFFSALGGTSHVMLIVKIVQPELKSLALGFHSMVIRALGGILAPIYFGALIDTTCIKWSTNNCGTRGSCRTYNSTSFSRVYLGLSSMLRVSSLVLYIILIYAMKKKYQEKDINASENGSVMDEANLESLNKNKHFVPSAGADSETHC

[15] = tested on: human plasma proteins; assay: In vitro plasma protein binding; type: in vitro ADME
[16] = tested on: dogs; conditions: dog, in vivo
[17] = target: CYP2C9 (Homo sapiens, UniProt P11712); assay: In vitro CYP inhibition (diclofenac probe); type: in vitro ADME; conditions: diclofenac probe substrate
Text: (§2) Probe substrates for CYP2C8 were not evaluated in this study.

[18] = target: T3, CYP2C8 (Homo sapiens, UniProt P10632); assay: In vitro CYP inhibition (paclitaxel probe); type: in vitro ADME; conditions: paclitaxel probe substrate
T3 sequence (P10632 whole entry): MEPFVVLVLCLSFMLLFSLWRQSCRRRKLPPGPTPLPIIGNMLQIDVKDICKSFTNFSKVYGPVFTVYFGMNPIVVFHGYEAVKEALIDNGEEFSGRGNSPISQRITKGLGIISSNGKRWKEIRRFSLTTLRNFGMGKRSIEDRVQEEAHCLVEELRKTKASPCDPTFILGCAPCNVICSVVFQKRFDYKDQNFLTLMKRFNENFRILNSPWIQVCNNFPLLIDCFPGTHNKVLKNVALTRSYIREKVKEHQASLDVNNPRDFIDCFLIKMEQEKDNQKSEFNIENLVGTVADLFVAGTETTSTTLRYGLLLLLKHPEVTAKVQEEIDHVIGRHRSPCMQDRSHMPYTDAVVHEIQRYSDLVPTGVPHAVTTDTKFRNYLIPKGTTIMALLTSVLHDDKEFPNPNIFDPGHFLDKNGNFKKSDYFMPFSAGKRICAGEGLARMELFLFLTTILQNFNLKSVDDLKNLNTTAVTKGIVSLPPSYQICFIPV
Text: as §2

[19] = target: CYP1A2 (Homo sapiens, UniProt P05177); assay: In vitro oxidative metabolism; type: in vitro ADME
CYP1A2, sequence (P05177 whole entry): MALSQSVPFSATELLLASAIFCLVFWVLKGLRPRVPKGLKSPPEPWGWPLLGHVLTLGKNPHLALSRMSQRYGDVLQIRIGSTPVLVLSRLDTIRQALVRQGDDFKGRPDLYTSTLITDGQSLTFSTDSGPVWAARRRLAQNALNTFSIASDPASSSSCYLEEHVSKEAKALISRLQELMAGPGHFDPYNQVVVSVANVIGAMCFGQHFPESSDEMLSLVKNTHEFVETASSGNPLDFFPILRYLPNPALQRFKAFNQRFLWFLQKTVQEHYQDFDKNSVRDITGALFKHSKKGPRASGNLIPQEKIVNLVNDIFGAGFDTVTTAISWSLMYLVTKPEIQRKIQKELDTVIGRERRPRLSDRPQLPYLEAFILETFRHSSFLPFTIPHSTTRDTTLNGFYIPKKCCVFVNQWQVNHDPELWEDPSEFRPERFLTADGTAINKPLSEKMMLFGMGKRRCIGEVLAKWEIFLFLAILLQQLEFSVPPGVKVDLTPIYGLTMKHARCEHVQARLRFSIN

[20] = target: T2, UGT1A1; assay: In vitro glucuronidation; type: in vitro ADME
[21] = tested on: rats; assay: Platelet production in animals; type: in vivo, rat
[22] = tested on: rats; assay: In vivo unscheduled DNA synthesis assay; conditions: rat unscheduled DNA synthesis, 11 times human clinical exposure (Cmax)
[23] = tested on: rats; assay: Fertility studies in rats; type: in vivo, rat
[24] = target: p-glycoprotein (Pgp) (Homo sapiens, UniProt P08183); assay: Transporter substrate assessment; type: in vitro ADME
[25] = Food effect open-label randomized crossover study; type: in vivo, human; conditions: standard high-fat breakfast
Text: The calcium content of this meal may have also contributed to this decrease in exposure.

[26] = tested on: mice; assay: In vivo cutaneous phototoxicity; parameters: species or system mouse; conditions: up to 11 times human clinical exposure (AUC)
[27] = tested on: female rats; assay: Early embryonic development study; type: in vivo, rat; conditions: highest dose, 7 times human clinical exposure (AUC); maternally toxic
[28] = target: T3, CYP2C8; assay: In vitro oxidative metabolism; type: in vitro ADME
[29] = Pharmacokinetics by race and gender; type: in vivo, human
[30] = tested on: rats; assay: In vivo micronucleus assay; conditions: rat micronucleus, 11 times human clinical exposure (Cmax)
[31] = target: T1, UGT1A3; assay: In vitro glucuronidation; type: in vitro ADME
[32] = Clinical pharmacokinetics: absorption, distribution, metabolism, elimination (incl. radiolabel study); type: in vivo, human; conditions: for half-life: plasma, oral
Procedure: Based on urinary excretion and biotransformation products eliminated in feces, the oral absorption of drug-related material following administration of a single 75 mg solution dose was estimated to be at least 52%.
Metabolites due to glucuronidation and oxidation were also detected.

[33] = tested on: pregnant rats; conditions: rat, in vivo
[34] = tested on: mice; assay: Platelet production in animals; type: in vivo, mouse

For `CC1=NN(c2ccc(C)c(C)c2)C(=O)/C1=N\Nc1cccc(-c2cccc(C(=O)O)c2)c1O` [eltrombopag, 3′-[(2Z)-[1-(3,4-dimethylphenyl)-1,5-dihydro-3-methyl-5-oxo-4H-pyrazol-4-ylidene]hydrazino]-2′-hydroxy-[1,1′-biphenyl]-3-carboxylic acid], the “exposure at the lowest dose relative to human clinical exposure based on AUC” value [1] was 1.4 times, the “plasma concentrations in pups versus dose” value ([2]; 0.8 and 2 times human clinical exposure (AUC), drug given to F0 dams) was “increased with dose” and the “presence in plasma of offspring (F1)” value ([2]; after administration to F0 dams) was “detected”. The “effects on maternal reproductive function or development of offspring (F1)” value ([2]; doses up to 2 times human clinical exposure (AUC)) was “no adverse effects”, the photo-ocular toxicity [3] was “no evidence” and the photo-ocular toxicity [4] was “no evidence”. For the same molecule, the “inhibition of UGT1A3” value [5] was “inhibitor”, the “inhibition of UGT2B7” value [6] was “inhibitor” and the “inhibition of UGT1A1” value [7] was “inhibitor”. The “inhibition of UGT1A6” value [8] was “inhibitor”, the “inhibition of UGT1A9” value [9] was “inhibitor” and the “inhibition of UGT2B15” value [10] was “inhibitor”. For the same molecule, the “inhibition of UGT1A4” value [11] was “inhibitor”, the “mouse lymphoma assay result” value ([12]; in vitro) was “marginally positive” and the “increase in mutation frequency” value ([12]; in vitro mouse lymphoma assay) was under 3 fold. The “fetotoxicity, embryolethality, or teratogenicity” value [13] was “no evidence of fetotoxicity, embryolethality, or teratogenicity”, the “inhibition of OATP1B1” value [14] was “inhibitor” and the “plasma protein binding” value [15] was “highly bound to plasma proteins”. For the same molecule, the “bound to human plasma proteins” value ([15]; in vitro) was over 99%, the cataracts [16] was “Cataracts were not observed” and the liver finding [16] was “hepatocellular hypertrophy”. The renal tubular toxicity [16] was “Renal tubular toxicity was not observed”, the “inhibition of CYP2C9” value [17] was “inhibitor” and the “inhibition of CYP2C8” value [18] was “inhibitor”. For the same molecule, the “role of CYP1A2 in oxidative metabolism” value [19] was “responsible; also recorded: involved”, the “role of UGT1A1 in glucuronidation” value [20] was “responsible” and the platelet production [21] was “does not stimulate platelet production”. For the same molecule, the mutagenicity/clastogenicity [22] was “not mutagenic or clastogenic”, the female fertility ([23]; doses up to 20 mg/kg/day (2 times human clinical exposure, AUC)) was “did not affect female fertility” and the male fertility ([23]; doses up to 40 mg/kg/day, highest dose tested (5 times human clinical exposure, AUC)) was “did not affect male fertility”. The “substrate for p-glycoprotein (Pgp)” value [24] was “not a substrate”, the “decrease of Cmax with food” value [25] was 65% and the “decrease of plasma AUC0-∞ with food” value [25] was “approximately 59%”. The “in vivo cutaneous phototoxicity” value [26] was “no evidence”, the “early embryonic development findings” value [27] was “Increased pre- and post-implantation loss and reduced fetal weight” and the “role of CYP2C8 in oxidative metabolism” value [28] was “responsible; also recorded: involved”. For the same molecule, the “plasma exposure higher than in non-Asian subjects” value ([29]; East Asian subjects with ITP) was “approximately 70%”, the systemic exposure higher ([29]; healthy African-American subjects) was “approximately 40%” and the “apparent clearance greater in males than females” value ([29]; population PK model, adjusted for body weight) was 27%. The mutagenicity/clastogenicity [30] was “not mutagenic or clastogenic”, the “role of UGT1A3 in glucuronidation” value [31] was “responsible” and the “dose found in the urine” value ([32]; % of dose) was 31%. For the same molecule, the excretion via feces ([32]; % of dose) was 59%, the “unchanged eltrombopag in feces” value ([32]; % of dose) was “approximately 20%” and the extent of metabolism ([32]; cleavage, oxidation, conjugation) was “extensively metabolized”. For the same molecule, the “share of plasma radiocarbon AUC0-∞” value ([32]; human radiolabel study) was “approximately 64%”, the renal excretion ([32]; human, in vivo) was “not significantly renally excreted” and the “unchanged eltrombopag in urine” value ([32]; human, in vivo) was “not detectable”. For the same molecule, the “time of peak concentration after oral administration” value ([32]; human, in vivo, po) was 2 to 6 h, the half-life ([32]; human, ITP patients) was 26 to 35 h and the half-life ([32]; human, healthy subjects) was 21 to 32 h. The “concentration in blood cells as % of plasma concentrations” value ([32]; radiolabel study) was 50-79%, the “oral absorption of drug-related material” value ([32]; single 75 mg solution dose, from urinary excretion and fecal biotransformation products) was “at least 52%” and the embryofetal findings [33] was “Decreased fetal weights and a slight increase in the presence of cervical ribs”. For the same molecule, the major structural malformations [33] was “no evidence of major structural malformations” and the platelet production [34] was “does not stimulate platelet production”.
